From patent US4202988A, “Prostenoic acids and esters” (American Cyanamid Company, priority 1977, dated 1980)

Assays:
[1] = test system: bronchospasms elicited by histamine; assay: Bronchodilator activity against histamine bronchospasm (Konzett procedure); format: in vivo, guinea pigs; settings: Cavia porcellus; guinea pig, three logarithmic cumulative intravenous doses
Procedure: (§1) Bronchodilator activity is determined in guinea pigs against bronchospasms elicited by intravenous injections of 5-hydroxytryptamine, histamine or acetylcholine by the Konzett procedure. [See J. Lulling, P. Lievens, F. El Sayed and J. Prignot, Arzeneimittel-Forschung, 18, 995 (1968).] In Table B bronchodilator activity for representative compounds of this invention against one or more of the three spasmogenic agents is expressed as an ED50 determined from the results obtained with three logarithmic cumulative intravenous doses.

[2] = test system: collagen induced platelet aggregation (human protein rich plasma); assay: Inhibition of Platelet Aggregation - In Vitro, collagen induced; format: cell-based; set-up: key: (-): Inhibition; (+): No inhibition
From the text: (§2) It is well known that platelet aggregation inhibitors may be useful as anti-thrombotic drugs. Inhibition of platelet aggregation can be conveniently measured in vitro by monitoring changes in optical density and/or light transmission in platelet rich plasma upon addition of suitable aggregating agents such as adenosine diphosphate, epinephrine, thrombin or collagen. Alternatively, platelet aggregation can be measured in vitro using platelet rich plasma obtained at various time intervals from animals given inhibitors by an oral or parenteral route.
(§3) Human […] is incubated with modified Tyrode's solution in a proportion of 40-50% human […]. The test compounds are added at varying concentrations and after 5 minutes incubation, an aggregating agent such as adenosine diphosphate or collagen is added. The change in optical density (light transmission) is monitored by eye and inhibition is recorded as a (-) or lack of inhibition is recorded as a (+). Test compounds are considered active if they inhibit adenosine diphosphate or collagen induced aggregation at a concentration of 25 mcg/ml or less within 5-10 minutes.

[3] = test system: bronchospasms elicited by acetylcholine; assay: Bronchodilator activity against acetylcholine bronchospasm (Konzett procedure); format: in vivo, guinea pigs; settings: Cavia porcellus; guinea pig, three logarithmic cumulative intravenous doses
Procedure: as §1

[4] = test system: bronchospasms elicited by 5-hydroxytryptamine; assay: Bronchodilator activity against 5-hydroxytryptamine bronchospasm (Konzett procedure); format: in vivo, guinea pigs; settings: Cavia porcellus; guinea pig, three logarithmic cumulative intravenous doses
Procedure: as §1

[5] = test system: adenosine diphosphate induced platelet aggregation (human protein rich plasma); assay: Inhibition of Platelet Aggregation - In Vitro, adenosine diphosphate induced; format: cell-based; set-up: key: (-): Inhibition; (+): No inhibition
From the text: as §2, §3

O=C(O)CCC/C=C\C[C@@H]1C(=O)C=C[C@H]1/C=C/C1(O)CCCCC1 (relative stereo) [nat-(and ent)-15-hydroxy-9-oxo-15,16-tetramethylene-17,18,19,20-tetranor-5-cis-10,13-trans-prostatrienoic Acid]
ED50 [1]: 0.632 µg/kg | Inhibition of platelet aggregation, collagen ([2]; drug concentration 25 μg/ml): (+) | Inhibition of platelet aggregation, collagen ([2]; drug concentration 250 μg/ml): (-) | ED50 [3]: > 3.2 µg/kg | ED50 [4]: > 3.2 µg/kg | Inhibition of platelet aggregation, adenosine diphosphate ([5]; drug concentration 25 μg/ml): (+) | Inhibition of platelet aggregation, adenosine diphosphate ([5]; drug concentration 250 μg/ml): (-)

N#CC1CC(=O)C(CC=CCCCC(=O)O)C1C=CC1(O)CCCCC1 (stereo not drawn) [nat(and ent)-11α/βCyano-15-hydroxy-9-ozxo-15, 16-tetramethylene-17,18,19,20-tetranor-5-cis-13-trans-prostadienoic Acid]
ED50 [1]: 0.367 µg/kg | Inhibition of platelet aggregation, collagen ([2]; drug concentration 25 μg/ml): (-) | Inhibition of platelet aggregation, collagen ([2]; drug concentration 250 μg/ml): (-) | ED50 [3]: 2.74 µg/kg | ED50 [4]: 1.81 µg/kg | Inhibition of platelet aggregation, adenosine diphosphate ([5]; drug concentration 2.5 μg/ml): (-) | Inhibition of platelet aggregation, adenosine diphosphate ([5]; drug concentration 25 μg/ml): (-) | Inhibition of platelet aggregation, adenosine diphosphate ([5]; drug concentration 250 μg/ml): (-)
